{
  "source": "patent US8952024B2",
  "about": "“Herbicidal pyrimidone derivatives” (E I du Pont de Nemours and Company, priority 2009, dated 2015)",
  "type_in_all_cases": "in vivo",
  "key": {"[1]": {"system": "bermudagrass (Cynodon dactylon)", "assay": "Test B pre-/postemergence plant response", "description": "(§1) Seeds of plant species selected from blackgrass (Alopecurus myosuroides), downy bromegrass (Bromus tectorum), green foxtail (Setaria viridis), Italian ryegrass (Lolium multiflorum), wheat (Triticum aestivum), wild oat (Avena fatua), deadnettle (henbit deadnettle, Lamium amplexicaule), galium (catchweed bedstraw, Galium aparine), bermudagrass (Cynodon dactylon), Surinam grass (Brachiaria decumbens), cocklebur (Xanthium strumarium), corn (Zea mays), large crabgrass (Digitaria sanguinalis), woolly cupgrass (Eriochloa villosa), giant foxtail (Setaria faberii), goosegrass (Eleusine indica), johnsongrass (Sorghum halepense), kochia (Kochia scoparia), lambsquarters (Chenopodium album), morningglory (Ipomoea coccinea), nightshade (eastern black nightshade, Solanum ptycanthum), yellow nutsedge (Cyperus esculentus), pigweed (Amaranthus retroflexus), ragweed (common ragweed, Ambrosia elatior), Russian thistle (Salsola kali), soybean (Glycine max), sunflower (common oilseed sunflower, Helianthus annuus) and velvetleaf (Abutilon theophrasti) were planted into a blend of loam soil and sand and treated preemergence with test compounds formulated in a non-phytotoxic solvent mixture which included a surfactant.\n(§2) At the same time, plants selected from these crop and weed species and also winter barley (Hordeum vulgare), canarygrass (Phalaris minor), chickweed (Stellaria media) and windgrass (Apera spica-venti) were planted in pots containing Redi-Earth® planting medium (Scotts Company, 14111 Scottslawn Road, Marysville, Ohio 43041) comprising spaghnum peat moss, vermiculite, wetting agent and starter nutrients and treated with postemergence applications of some of the test chemicals formulated in the same manner. Plants ranged in height from 2 to 18 cm (1- to 4-leaf stage) for postemergence treatments.\n(§3) Treated plants and controls were maintained in a greenhouse for 13 to 15 days, after which time all treated plants were visually evaluated and compared to controls. Plant response ratings, summarized in Table B, are based on a scale of 0 to 100 where 0 is no effect and 100 is complete control. A dash (-) response means no test result."}, "[2]": {"system": "cocklebur (Xanthium strumarium)", "assay": "Test B pre-/postemergence plant response", "description": "as §1, §2, §3"}, "corn (Zea mays)": {"system": "corn (Zea mays)", "assay": "Test B pre-/postemergence plant response", "description": "as §1, §2, §3"}, "[3]": {"system": "giant foxtail (Setaria faberii)", "assay": "Test B pre-/postemergence plant response", "description": "as §1, §2, §3"}, "[4]": {"system": "green foxtail (Setaria viridis)", "assay": "Test B pre-/postemergence plant response", "description": "as §1, §2, §3"}, "[5]": {"system": "johnsongrass (Sorghum halepense)", "assay": "Test B pre-/postemergence plant response", "description": "as §1, §2, §3"}, "kochia (Kochia scoparia)": {"system": "kochia (Kochia scoparia)", "assay": "Test B pre-/postemergence plant response", "description": "as §1, §2, §3"}, "[6]": {"system": "lambsquarters (Chenopodium album)", "assay": "Test B pre-/postemergence plant response", "description": "as §1, §2, §3"}, "[7]": {"system": "pigweed (Amaranthus retroflexus)", "assay": "Test B pre-/postemergence plant response", "description": "as §1, §2, §3"}, "[8]": {"system": "ragweed (common ragweed, Ambrosia elatior)", "assay": "Test B pre-/postemergence plant response", "conditions": "for Plant response rating, Ragweed: Postemergence, scale 0 to 100 (0 no effect, 100 complete control)", "description": "as §1, §2, §3"}, "soybean (Glycine max)": {"system": "soybean (Glycine max)", "assay": "Test B pre-/postemergence plant response", "conditions": "for Plant response rating, Soybean: Postemergence, scale 0 to 100 (0 no effect, 100 complete control)", "description": "as §1, §2, §3"}, "wild oat (Avena fatua)": {"system": "wild oat (Avena fatua)", "assay": "Test B pre-/postemergence plant response", "description": "as §1, §2, §3"}, "[9]": {"system": "barnyardgrass (Echinochloa crus-galli)", "assay": "Test B flooded paddy test", "conditions": "for Plant response rating, Barnyardgrass: Flood (flooded paddy test), 13 to 15 days", "method_in_brief": "(§4)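 Plants were grown to the 2-leaf stage, then pots were flooded to 3 cm above the soil and compounds were applied directly into the paddy water. That depth was held throughout. After 13 to 15 days in a greenhouse, injury was visually rated against controls on a 0–100 scale.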"}, "[10]": {"system": "ducksalad (Heteranthera limosa)", "assay": "Test B flooded paddy test", "conditions": "for Plant response rating, Ducksalad: Flood (flooded paddy test), 13 to 15 days", "method_in_brief": "as §4"}, "rice (Oryza sativa)": {"system": "rice (Oryza sativa)", "assay": "Test B flooded paddy test", "conditions": "for Plant response rating, Rice: Flood (flooded paddy test), 13 to 15 days", "method_in_brief": "as §4"}, "[11]": {"system": "umbrella sedge (Cyperus difformis)", "assay": "Test B flooded paddy test", "conditions": "for Plant response rating, Sedge, Umbrella: Flood (flooded paddy test), 13 to 15 days", "method_in_brief": "as §4"}, "[12]": {"conditions": "31 g ai/ha, postemergence, scale 0 to 100, 0 is no effect, 100 is complete control"}, "[13]": {"conditions": "62 g ai/ha, postemergence, 0 is no effect, 100 is complete control, 13 to 15 days"}, "[14]": {"conditions": "Postemergence, 125 g ai/ha, scale 0 to 100 (0 no effect, 100 complete control)"}, "[15]": {"conditions": "Postemergence, 250 g ai/ha, scale 0 to 100 (0 no effect, 100 complete control)"}, "[16]": {"conditions": "250 g ai/ha, flooded paddy test, visual rating on 0 to 100 scale (0 no effect, 100 complete control) after 13 to 15 days"}, "[17]": {"conditions": "62 g ai/ha, scale of 0 to 100 where 0 is no effect and 100 is complete control"}, "[18]": {"conditions": "125 g ai/ha, scale 0 to 100, 0 is no effect, 100 is complete control"}, "[19]": {"conditions": "Flood, 31 g ai/ha, scale 0 to 100 (0 no effect, 100 complete control)"}},
  "data": [
    {"smiles": "O=C1CCCC(O)=C1C(=O)c1cnc(-c2ccsc2)n(CC2CCCO2)c1=O", "note": "(centres unmarked) [Compound 98]", "values": [
      {"measurement": "Plant response rating, Bermudagrass", "setting": "[1]; [12]", "result": 75},
      {"measurement": "Bermudagrass plant response rating (0 to 100 scale)", "setting": "[1]; [13]", "result": 80},
      {"measurement": "Plant response rating, Bermudagrass", "setting": "[1]; [14]", "result": 85},
      {"measurement": "Plant response rating, Bermudagrass", "setting": "[1]; [15]", "result": 98},
      {"measurement": "Plant response rating, Cocklebur", "setting": "[2]; [12]", "result": 98},
      {"measurement": "Cocklebur plant response rating (0 to 100 scale)", "setting": "[2]; [13]", "result": 100},
      {"measurement": "Plant response rating, Cocklebur", "setting": "[2]; [14]", "result": 100},
      {"measurement": "Plant response rating, Cocklebur", "setting": "[2]; [15]", "result": 100},
      {"measurement": "Plant response rating, Corn", "setting": "corn (Zea mays); [12]", "result": 35},
      {"measurement": "Corn plant response rating (0 to 100 scale)", "setting": "corn (Zea mays); [13]", "result": 35},
      {"measurement": "Plant response rating, Corn", "setting": "corn (Zea mays); [14]", "result": 55},
      {"measurement": "Plant response rating, Corn", "setting": "corn (Zea mays); [15]", "result": 70},
      {"measurement": "Plant response rating, Foxtail, Giant", "setting": "[3]; [12]", "result": 65},
      {"measurement": "Foxtail, Giant plant response rating (0 to 100 scale)", "setting": "[3]; [13]", "result": 75},
      {"measurement": "Plant response rating, Foxtail, Giant", "setting": "[3]; [14]", "result": 85},
      {"measurement": "Plant response rating, Foxtail, Giant", "setting": "[3]; [15]", "result": 85},
      {"measurement": "Plant response rating, Foxtail, Green", "setting": "[4]; [12]", "result": 30},
      {"measurement": "Foxtail, Green plant response rating (0 to 100 scale)", "setting": "[4]; [13]", "result": 85},
      {"measurement": "Plant response rating, Foxtail, Green", "setting": "[4]; [14]", "result": 85},
      {"measurement": "Plant response rating, Foxtail, Green", "setting": "[4]; [15]", "result": 95},
      {"measurement": "Plant response rating, Johnsongrass", "setting": "[5]; [12]", "result": 55},
      {"measurement": "Johnsongrass plant response rating (0 to 100 scale)", "setting": "[5]; [13]", "result": 70},
      {"measurement": "Plant response rating, Johnsongrass", "setting": "[5]; [14]", "result": 75},
      {"measurement": "Plant response rating, Johnsongrass", "setting": "[5]; [15]", "result": 98},
      {"measurement": "Plant response rating, Kochia", "setting": "kochia (Kochia scoparia); [12]", "result": 65},
      {"measurement": "Kochia plant response rating (0 to 100 scale)", "setting": "kochia (Kochia scoparia); [13]", "result": 70},
      {"measurement": "Plant response rating, Kochia", "setting": "kochia (Kochia scoparia); [14]", "result": 80},
      {"measurement": "Plant response rating, Kochia", "setting": "kochia (Kochia scoparia); [15]", "result": 98},
      {"measurement": "Plant response rating, Lambsquarters", "setting": "[6]; [12]", "result": 95},
      {"measurement": "Lambsquarters plant response rating (0 to 100 scale)", "setting": "[6]; [13]", "result": 98},
      {"measurement": "Plant response rating, Lambsquarters", "setting": "[6]; [14]", "result": 100},
      {"measurement": "Plant response rating, Lambsquarters", "setting": "[6]; [15]", "result": 100},
      {"measurement": "Plant response rating, Pigweed", "setting": "[7]; [12]", "result": 100},
      {"measurement": "Pigweed plant response rating (0 to 100 scale)", "setting": "[7]; [13]", "result": 100},
      {"measurement": "Plant response rating, Pigweed", "setting": "[7]; [14]", "result": 100},
      {"measurement": "Plant response rating, Pigweed", "setting": "[7]; [15]", "result": 100},
      {"measurement": "Ragweed plant response rating (0 to 100 scale)", "setting": "[8]; [13]", "result": 75},
      {"measurement": "Plant response rating, Ragweed", "setting": "[8]; 125 g ai/ha", "result": 80},
      {"measurement": "Plant response rating, Ragweed", "setting": "[8]; 250 g ai/ha", "result": 90},
      {"measurement": "Soybean plant response rating (0 to 100 scale)", "setting": "soybean (Glycine max); [13]", "result": 98},
      {"measurement": "Plant response rating, Soybean", "setting": "soybean (Glycine max); 125 g ai/ha", "result": 98},
      {"measurement": "Plant response rating, Soybean", "setting": "soybean (Glycine max); 250 g ai/ha", "result": 100},
      {"measurement": "Plant response rating, Oat, Wild", "setting": "wild oat (Avena fatua); [12]", "result": 10},
      {"measurement": "Oat, Wild plant response rating (0 to 100 scale)", "setting": "wild oat (Avena fatua); [13]", "result": 20},
      {"measurement": "Plant response rating, Oat, Wild", "setting": "wild oat (Avena fatua); [14]", "result": 20},
      {"measurement": "Plant response rating, Oat, Wild", "setting": "wild oat (Avena fatua); [15]", "result": 50},
      {"measurement": "Plant response rating, Flood, Barnyardgrass", "setting": "[9]; [16]", "result": 50},
      {"measurement": "Plant response rating, Barnyardgrass", "setting": "[9]; [17]", "result": 30},
      {"measurement": "Plant response rating, Barnyardgrass", "setting": "[9]; [18]", "result": 30},
      {"measurement": "Barnyardgrass plant response rating", "setting": "[9]; [19]", "result": 0},
      {"measurement": "Plant response rating, Flood, Ducksalad", "setting": "[10]; [16]", "result": 0},
      {"measurement": "Plant response rating, Ducksalad", "setting": "[10]; [17]", "result": 0},
      {"measurement": "Plant response rating, Ducksalad", "setting": "[10]; [18]", "result": 0},
      {"measurement": "Ducksalad plant response rating", "setting": "[10]; [19]", "result": 0},
      {"measurement": "Plant response rating, Flood, Rice", "setting": "rice (Oryza sativa); [16]", "result": 40},
      {"measurement": "Plant response rating, Rice", "setting": "rice (Oryza sativa); [17]", "result": 0},
      {"measurement": "Plant response rating, Rice", "setting": "rice (Oryza sativa); [18]", "result": 0},
      {"measurement": "Rice plant response rating", "setting": "rice (Oryza sativa); [19]", "result": 0},
      {"measurement": "Plant response rating, Flood, Sedge, Umbrella", "setting": "[11]; [16]", "result": 75},
      {"measurement": "Plant response rating, Sedge, Umbrella", "setting": "[11]; [17]", "result": 65},
      {"measurement": "Plant response rating, Sedge, Umbrella", "setting": "[11]; [18]", "result": 75},
      {"measurement": "Sedge, Umbrella plant response rating", "setting": "[11]; [19]", "result": 40}
    ]}
  ]
}
